Measured values reported in patent US10155004B2, “17-hydroxy-17-pentafluoroethyl-estra-4,9(10)-dien-11-aryl derivatives, method of production thereof and use thereof for the treatment of diseases” (BAYER INTELLECTUAL PROPERTY GMBH, priority 2009, dated 2018).

Assays:
[1] = biological target: T1, human progesterone receptor A (Homo sapiens, UniProt P06401); experiment: Progesterone receptor-antagonistic action in stably transfected SK-N-MC cells, MTV-LUC reporter (PR-A); format: cell-based; conditions: for IC50: antagonism of 0.1 nmol/l promegestone, 24 hours, LUC reporter, read-out: Progesterone receptor A (PR-A) Potency IC50; for Progesterone receptor A (PR-A) Efficacy: antagonistic efficacy vs 0.1 nmol/l promegestone
T1 construct: expressed in transfected cells; host or cells: SK-N-MC human neuroblastoma cells, stably transfected
T1 sequence (P06401 1-769 isoform P06401-2): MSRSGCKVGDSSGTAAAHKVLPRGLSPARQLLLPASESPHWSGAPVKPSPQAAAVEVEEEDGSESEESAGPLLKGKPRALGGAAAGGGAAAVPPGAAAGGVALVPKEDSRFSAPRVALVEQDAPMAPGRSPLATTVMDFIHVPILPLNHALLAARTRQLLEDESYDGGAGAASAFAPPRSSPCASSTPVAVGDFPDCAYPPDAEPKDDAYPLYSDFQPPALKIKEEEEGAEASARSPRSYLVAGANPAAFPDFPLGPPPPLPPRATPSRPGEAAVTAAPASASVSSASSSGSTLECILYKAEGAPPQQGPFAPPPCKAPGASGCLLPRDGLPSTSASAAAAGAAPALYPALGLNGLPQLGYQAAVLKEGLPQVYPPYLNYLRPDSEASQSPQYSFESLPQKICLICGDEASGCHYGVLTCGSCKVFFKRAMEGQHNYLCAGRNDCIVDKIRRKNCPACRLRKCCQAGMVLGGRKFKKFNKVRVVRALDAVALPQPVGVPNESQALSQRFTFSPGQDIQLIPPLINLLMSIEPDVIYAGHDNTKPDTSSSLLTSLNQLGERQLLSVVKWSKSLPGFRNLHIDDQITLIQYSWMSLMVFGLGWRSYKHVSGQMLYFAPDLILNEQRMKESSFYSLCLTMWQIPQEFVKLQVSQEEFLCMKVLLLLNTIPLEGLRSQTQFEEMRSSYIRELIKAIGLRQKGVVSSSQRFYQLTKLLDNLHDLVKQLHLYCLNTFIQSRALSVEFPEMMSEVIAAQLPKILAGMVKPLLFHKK
Method: (§1) EXAMPLE 16 PROGESTERONE RECEPTOR-ANTAGONISTIC ACTION IN STABLE TRANSFECTANTS OF HUMAN NEUROBLASTOMA CELLS (SK-N-MC CELLS) WITH THE HUMAN PROGESTERONE A OR PROGESTERONE B RECEPTOR AND AN MTV-LUC REPORTER CONSTRUCT
(§2) SK-N-MC cells (human neuroblastoma cells), which have been stably transfected with plasmids, which express the human progesterone receptor B (pRChPR-B-neo) or the human progesterone receptor A (pRChPR-A-neo) and a reporter construct (pMMTV-LUC), were incubated for 24 hours either in the absence (negative control) or in the presence of increasing amounts of the respective test compound (0.01 nmol/l, 0.1 nmol/l 1 nmol/l, 10 nmol/l, 100 nmol/l and 1 μmol/l), in order to determine the agonistic efficacy. As positive control of reporter gene induction, the cells were treated with the synthetic gestagen promegestone (0.01 nmol/l, 0.1 nmol/l, 1 nmol/l, 10 nmol/l, 100 nmol/l and 1 μmol/l). For determination of the antagonistic activity, the cells were treated with 0.1 nmol/1 promegestone and additionally with increasing amounts of the respective test compound (0.01 nmol/l, 0.1 nmol/l, 1 nmol/l, 10 nmol/l, 100 nmol/l and 1 μmol/l). The activity of the LUC reporter gene (LUC=luciferase) was determined in the cell lysates and was measured as RLU (relative light units). All measured values are given as percentage efficacy and as EC50 or IC50 concentrations.
(§3) 11β-(4-Acetylphenyl)-20,20,21,21,21-pentafluoro-17-hydroxy-19-nor-17α-pregna-4,9-dien-3-one and 20,20,21,21,21-pentafluoro-17-hydroxy-11β-[4-(hydroxyacetyl)phenyl]-19-nor-17α-pregna-4,9-dien-3-one, very potent and therefore preferred examples from WO98/34947 and WO2008/058767, were tested as comparative compounds along with the test compound.

[2] = biological target: T2, human progesterone receptor B (Homo sapiens, UniProt P06401); experiment: Progesterone receptor-antagonistic action in stably transfected SK-N-MC cells, MTV-LUC reporter (PR-B); format: cell-based; conditions: for IC50: antagonism of 0.1 nmol/l promegestone, 24 hours, LUC reporter, read-out: Progesterone receptor B (PR-B) Potency IC50; for Progesterone receptor B (PR-B) Efficacy: antagonistic efficacy vs 0.1 nmol/l promegestone
T2 construct: expressed in transfected cells; host or cells: SK-N-MC human neuroblastoma cells, stably transfected
T2 sequence (P06401 1-933): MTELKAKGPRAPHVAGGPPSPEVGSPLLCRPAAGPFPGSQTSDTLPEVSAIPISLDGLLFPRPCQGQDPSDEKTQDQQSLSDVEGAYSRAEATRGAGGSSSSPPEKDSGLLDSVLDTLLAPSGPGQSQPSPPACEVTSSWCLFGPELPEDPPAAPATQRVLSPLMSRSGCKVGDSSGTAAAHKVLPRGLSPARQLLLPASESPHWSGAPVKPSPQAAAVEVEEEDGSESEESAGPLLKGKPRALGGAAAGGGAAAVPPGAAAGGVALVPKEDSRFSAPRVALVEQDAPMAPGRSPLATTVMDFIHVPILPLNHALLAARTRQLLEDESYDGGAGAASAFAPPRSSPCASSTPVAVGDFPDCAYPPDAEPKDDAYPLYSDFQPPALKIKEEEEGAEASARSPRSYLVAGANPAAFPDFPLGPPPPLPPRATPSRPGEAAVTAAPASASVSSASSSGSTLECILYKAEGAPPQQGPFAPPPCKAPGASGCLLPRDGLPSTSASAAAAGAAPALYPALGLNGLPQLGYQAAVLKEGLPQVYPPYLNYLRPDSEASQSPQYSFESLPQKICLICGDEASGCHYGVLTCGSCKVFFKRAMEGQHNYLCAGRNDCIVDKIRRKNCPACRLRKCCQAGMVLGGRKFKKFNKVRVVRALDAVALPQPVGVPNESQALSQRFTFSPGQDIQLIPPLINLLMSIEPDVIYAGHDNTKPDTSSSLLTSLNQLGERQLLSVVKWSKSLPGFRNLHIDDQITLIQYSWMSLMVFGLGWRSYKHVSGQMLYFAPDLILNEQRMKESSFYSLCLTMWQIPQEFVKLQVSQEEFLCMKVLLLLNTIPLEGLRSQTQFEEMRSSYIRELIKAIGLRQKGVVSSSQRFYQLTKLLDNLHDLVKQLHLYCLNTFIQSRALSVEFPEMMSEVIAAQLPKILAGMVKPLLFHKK
Method: as §1, §2, §3

[3] = test system: pregnant rats; experiment: Abortion test on female rats (termination of early pregnancy); format: in vivo, rat; conditions: d5-d7 p.c., autopsy d9 p.c.
Method: EXAMPLE 17 ABORTION TEST ON FEMALE RATS
The action of progesterone and of the progesterone receptor is a fundamental precondition for successful pregnancy or gestation in mammals. The progesterone-antagonistic action of the compounds according to the invention was tested on pregnant rats (6 rats per group) on day 5 to 7 post coitum with conventional housing and feeding conditions.
After successful hand mating, the pregnant animals (presence of sperm in the vaginal smear on day 1 of pregnancy=d1 p.c.) were randomized and divided into the treatment group and the control group. The animals then each received subcutaneously or orally 0.15; 0.5; 1.5 or 5 mg/kg of the test compound or 1.0 ml/kg of vehicle (benzyl benzoate/castor oil: 1+4 [v/v]) daily from day 5 to day 7 (d5-d7 p.c.).
Autopsy was carried out on day 9 (d9 p.c.). As a characteristic of progesterone receptor antagonistic action, the uterus was examined for the presence of nidation sites. Complete absence, or also the presence of pathological, haemorrhagic or otherwise abnormal nidation sites on day 9 (d9 p.c.) was assessed as abortion.

[4] = daily dose 0.5 mg/kg s.c. or p.o.
[5] = daily dose 1.5 mg/kg s.c. or p.o.
[6] = daily dose 5.0 mg/kg s.c. or p.o.

Structure (SMILES) | IC50 [1] | IC50 [2] | Progesterone receptor A (PR-A) Efficacy [1] | Progesterone receptor B (PR-B) Efficacy [2] | further results
CN(C)S(=O)(=O)c1ccc(-c2ccc([C@H]3C[C@@]4(C)[C@@H](CC[C@@]4(O)C(F)(F)C(F)(F)F)[C@@H]4CCC5=CC(=O)CCC5=C43)cc2)cc1 [Example 14, 4′-[(11β,17β)-17-hydroxy-3-oxo-17-(pentafluoroethyl)estra-4,9-dien-11-yl]-N,N-dimethylbiphenyl-4-sulphonamide] | 0.01 nM |  |  |  | 
CC(=O)c1ccc(C2CC3(C)C(CCC3(O)C(F)(F)C(F)(F)F)C3CCC4=CC(=O)CCC4=C23)cc1 (stereo not drawn) [11β-(4-Acetylphenyl)-20,20,21,21,21-pentafluoro-17-hydroxy-19-nor-17α-pregna-4,9-dien-3-one, reference compound] | 0.014 nM | 0.02 nM |  |  | 
CCSc1ccc([C@H]2C[C@@]3(C)C(CC[C@@]3(O)C(F)(F)C(F)(F)F)C3CCC4=CC(=O)CCC4=C32)cc1 (stereo partly drawn) [Example 2, (11β,17β)-11-[4-(ethylsulphanyl)phenyl]-17-hydroxy-17-(pentafluoroethyl)estra-4,9-dien-3-one] | 0.01 nM |  |  |  | 
CSc1ccc(-c2ccc([C@H]3C[C@@]4(C)[C@@H](CC[C@@]4(O)C(F)(F)C(F)(F)F)[C@@H]4CCC5=CC(=O)CCC5=C43)cc2)cc1 [Example 9, (11β,17β)-17-Hydroxy-11-[4′-(methylsulphanyl)biphenyl-4-yl]-17-(pentafluoroethy)estra-4,9-dien-3-one] | 0.01 nM | 0.01 nM |  |  | 
C[C@]12C[C@H](c3ccc(S(C)(=N)=O)cc3)C3=C4CCC(=O)C=C4CCC3C1CC[C@@]2(O)C(F)(F)C(F)(F)F (stereo partly drawn) [Example 8, (11β,17β)-17-Hydroxy-11-[4-(RS-methylsulphonimidoyl)phenyl]-17-(pentafluoroethyl)estra-4,9-dien-3-one] |  |  | 100% | 100% | Abortion rate ([3]; daily dose 0.15 mg/kg s.c. or p.o.): 40%; Abortion rate [3, 4]: 100%; Abortion rate [3, 5]: 100%; Abortion rate [3, 6]: 100%
CSc1ccc([C@H]2C[C@@]3(C)[C@@H](CC[C@@]3(O)C(F)(F)C(F)(F)F)[C@@H]3CCC4=CC(=O)CCC4=C32)cc1 [Example 1, (11β,17β)-17-hydroxy-11-[4-(methylsulphanyl)phenyl]-17-(pentafluoroethyl)estra-4,9-dien-3-one] |  |  | 100% | 100% | Abortion rate [3, 4]: 80%; Abortion rate [3, 5]: 100%; Abortion rate [3, 6]: 100%
C[S+]([O-])c1ccc([C@H]2C[C@@]3(C)[C@@H](CC[C@@]3(O)C(F)(F)C(F)(F)F)[C@@H]3CCC4=CC(=O)CCC4=C32)cc1 (mixture of isomers) [Example 3, (11β,17β)-17-Hydroxy-11-{4-[(RS)-methylsulphinyl]phenyl}-17-(pentafluoroethy)estra-4,9-dien-3-one] |  |  | 100% | 100% | 
CN(C)S(=O)(=O)c1ccc([C@H]2C[C@@]3(C)[C@@H](CC[C@@]3(O)C(F)(F)C(F)(F)F)[C@@H]3CCC4=CC(=O)CCC4=C32)cc1 [Example 15, 4-[(11β,17β)-17-Hydroxy-3-oxo-17-(pentafluoroethy)estra-4,9-dien-11-yl]-N,N-dimethylbenzene Sulphonamide] | 0.1 nM | 0.2 nM |  |  | 
